Measured values: the METLIN SMRT retention time set (Domingo-Almenara et al. 2019)

Experiment: gradient 5% acetonitrile 3 min, to 50% in 2 min, to 85% in 15 min, held 3 min, 100 µL/min
Details: column: Zorbax Extend-C18 2.1 x 50 mm; eluents: water / acetonitrile, 0.1% formic acid
Method in brief: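 Retention times come from adduct peaks that were picked computationally and then checked by hand. The standards, pure and pooled in mixtures of ~100 molecules, were run on a Zorbax Extend-C18 column (2.1 × 50 mm, 1.8 μm) at 100 μL/min with water and acetonitrile, each with 0.1% formic acid. Detection was by quadrupole time-of-flight mass spectrometry in positive and negative ionization mode, with a dead volume of 40 μL and a dwell volume of 900 μL.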

CC1CCN(S(=O)(=O)c2ccc(-c3nnc(C(=O)NC4CCCCC4)o3)cc2)CC1
RP-LC retention time: 1120 s

COc1ccc(NC(=O)COc2ccc(-c3nnc4n3CCCC4)cc2)c(OC)c1
RP-LC retention time: 684 s

COc1cc(OC)c(NC(=O)CN2C(=O)C(C)(C)c3ccccc32)cc1Cl
RP-LC retention time: 954 s

COc1cccc(C(=O)NCCc2c[nH]c3ccc(F)cc23)c1
RP-LC retention time: 820 s

Fc1ccc(-c2nc(-c3ccc(-n4cccn4)nc3)no2)c(Cl)c1
RP-LC retention time: 1300 s

CC1CCN(c2ncc(NC(=O)c3ccc(Br)cc3)cc2C(=O)O)CC1
RP-LC retention time: 759 s

Cn1c(=O)oc2cc(-c3noc(CCc4ccccc4)n3)ccc21
RP-LC retention time: 1030 s

CCNC(=O)N1CCC(c2noc(-c3ccccc3)n2)C1 (stereo not given)
RP-LC retention time: 724 s

O=C(Nc1nc(-c2ccc(F)cc2)cs1)c1cccc(Br)c1
RP-LC retention time: 1120 s

COc1ccc(C)cc1S(=O)(=O)N1CCN(Cc2ccc3c(c2)OCO3)CC1
RP-LC retention time: 609 s

CCN(CC)c1ncc2c(n1)CCC(C(=O)Nc1ccc(OC)c(OC)c1)C2 (stereo not given)
RP-LC retention time: 660 s

O=c1n(Cc2c(F)cccc2Cl)nc2ccc(S(=O)(=O)N3CCOCC3)cn12
RP-LC retention time: 821 s

O=C(NCc1ccc2c(c1)OCO2)C1CCCN(C(=O)c2cc(-c3cccnc3)n[nH]2)C1 (stereo not given)
RP-LC retention time: 584 s

COc1ccc(CCNC(=O)CSc2nnc(Cc3csc(N)n3)n2C)cc1OC
RP-LC retention time: 539 s

CCOc1ccc(-c2ccc(=O)n(Cc3nc(-c4cccc(C)c4)no3)n2)cc1
RP-LC retention time: 1120 s

O=C(c1cnccn1)N1CCC(c2noc(C3CC3)n2)C1 (stereo not given)
RP-LC retention time: 646 s

COc1ccc(C(O)Cn2ccn3nc(-c4cc(C)ccc4C)cc3c2=O)cc1 (stereo not given)
RP-LC retention time: 949 s

O=C(Cn1c(=O)n(-c2ccccc2)c2ncccc21)NCCN1CCOCC1
RP-LC retention time: 585 s

c1ccc(Sc2ncnc3ccccc23)cc1
RP-LC retention time: 1050 s

COc1cc(Nc2nc(-c3nnn(-c4ccc(F)cc4)c3C)ns2)cc(OC)c1
RP-LC retention time: 990 s

CCNC(=O)N1CCc2c(c(-c3nc(Cc4ccccc4)no3)nn2C)C1
RP-LC retention time: 742 s

COc1ccc(-n2ncc3c(=O)n(Cc4nc(-c5ccc(Cl)c(F)c5)no4)cnc32)cc1
RP-LC retention time: 1090 s

CN1C2CCC1CC(OC(=O)c1cc(Cl)cc(Cl)c1)C2 (stereo not given)
RP-LC retention time: 669 s

COc1ccc(NC(=O)C2CCN(S(=O)(=O)c3cc(C(=O)N(C)C)cs3)CC2)cc1
RP-LC retention time: 730 s

CCCCOc1ccc(C(=O)NC2(c3nc(-c4cccnc4)no3)CCCCC2)cc1
RP-LC retention time: 1170 s

Cc1c(NS(C)(=O)=O)cccc1-c1nc2cccnc2s1
RP-LC retention time: 682 s

Cc1ccc(C(=O)N2CCCC2c2nc(-c3cccc(Cl)c3)no2)cc1C (stereo not given)
RP-LC retention time: 1200 s

COc1ccc(Cc2nc3ccc(C(=O)NCc4ccc(C)o4)cc3o2)cc1
RP-LC retention time: 918 s

COc1ccc(-c2nc(Cc3noc(-c4cccc(F)c4)n3)c(C)o2)cc1
RP-LC retention time: 1040 s

CCCCc1ccc(NC(=O)Cn2cccc2-c2nc(-c3ccc4c(c3)OCO4)no2)cc1
RP-LC retention time: 1260 s

CCCc1nc(N2CCN(c3ccccn3)CC2)ncc1C(=O)O
RP-LC retention time: 606 s

Cc1ccc(NC(=O)N2CCCC2c2nncn2-c2ccccc2)cc1C (stereo not given)
RP-LC retention time: 767 s

CCN(CC)C(=O)Cn1nc2cc(C)nc(-c3ccc(C(F)(F)F)cc3)n2c1=O
RP-LC retention time: 841 s

COc1ccc(OC)c(-c2csc(-c3nnn(-c4ccc(C)cc4)c3N)n2)c1
RP-LC retention time: 1160 s

CC(C)c1ccc(S(=O)(=O)N2CCC(C)(C(=O)NCc3ccc(F)cc3)CC2)cc1
RP-LC retention time: 1050 s

O=S(=O)(c1cccs1)N1CC(c2nc(-c3ccncc3)no2)C1
RP-LC retention time: 679 s

CCOc1ccc(NC(=O)Cn2c(-c3cnccn3)nc(C)c(C)c2=O)cc1
RP-LC retention time: 735 s

Cc1csc(-c2cc(S(=O)(=O)NC(C)C)cn2CC(=O)N2CCCCC2)n1
RP-LC retention time: 873 s

CCC(=O)NCCc1csc(C2CCCN(C(=O)CC)C2)n1 (stereo not given)
RP-LC retention time: 591 s

Brc1ccc(-c2ccc(CNc3ncn[nH]3)o2)cc1
RP-LC retention time: 708 s

Cc1sc(-c2nc(C(C)C)cs2)cc1S(=O)(=O)N1CCN(c2ccccc2)CC1
RP-LC retention time: 1420 s

CCOC(=O)c1ccccc1NC(=O)c1nc(SC)ncc1Cl
RP-LC retention time: 1240 s

COc1ccc(NC(=O)CSc2nc3nc(C)cc(C)n3n2)cc1OC
RP-LC retention time: 652 s

Cc1[nH]c(C)c(S(=O)(=O)N2CCC(C(=O)NC3CCCCC3)CC2)c1C(=O)N1CCCC1
RP-LC retention time: 676 s

COc1ccc(OC)c(S(=O)(=O)NCc2ccc3c(c2)CCN3C(C)=O)c1
RP-LC retention time: 719 s

O=C(Nc1ccc2c(c1)OCCO2)C(=O)c1cccn1Cc1ccccc1
RP-LC retention time: 1040 s

COCCN1C(=O)CCc2cc(NS(=O)(=O)c3cc(OC)ccc3OC)ccc21
RP-LC retention time: 724 s

CCCCN1C(=O)c2ccccc2C(C(=O)NCCC(=O)OC)C12CCCCC2 (stereo not given)
RP-LC retention time: 868 s

Cc1ccc(S(=O)(=O)N2CCC(c3nc(C(=O)N4CCOCC4)c(C)o3)CC2)cc1C
RP-LC retention time: 870 s

C=CCNC(=O)CN1C(=O)C2CCCCN2c2ccc(C(=O)N3CCCC3)cc21 (stereo not given)
RP-LC retention time: 838 s

CCc1ccc(N2C(=O)N(CC(=O)N3CCOc4ccc(C)cc43)C3CS(=O)(=O)CC32)cc1 (stereo not given)
RP-LC retention time: 966 s

Cc1ccc(-c2[nH]ncc2CN)cc1
RP-LC retention time: 562 s

Cc1ccc(C(=O)N2CCN(c3nnc4ccccn34)CC2)cc1C
RP-LC retention time: 676 s

Cc1ccccc1-c1noc(CN2N=NC3C(=O)N(c4ccc(C(C)C)cc4)C(=O)C32)n1 (stereo not given)
RP-LC retention time: 1150 s

COc1ccc(N2CCN(c3nc(C(=O)N4CCN(C)CC4)cs3)CC2)cc1
RP-LC retention time: 614 s

Cc1cccc(C)c1N1CC(c2nc3ccccc3n2CC(=O)N2CCOCC2)CC1=O (stereo not given)
RP-LC retention time: 652 s

Cc1cnc(C(=O)N[C@@H]2CCC[C@@H]2C(=O)NC(C)C)cn1
RP-LC retention time: 582 s

CC1CCN(C(=O)CSc2nnc(-c3ccccc3F)o2)CC1
RP-LC retention time: 901 s

CCc1cccc(CC)c1NC(=O)c1cccc(OC)c1
RP-LC retention time: 875 s

Cc1[nH]c(C(=O)N2CCN(c3ccccc3F)CC2)c(C)c1S(=O)(=O)N1CCC(C)CC1
RP-LC retention time: 1040 s

CCc1noc(COC2CCCN(C(=O)NCCc3ccccc3)C2)n1 (stereo not given)
RP-LC retention time: 796 s

Cc1ccc(-n2cc(C(=O)OCc3ccco3)c3ccccc3c2=O)cc1
RP-LC retention time: 1170 s

CCn1ccc(C(=O)N2CCN(c3cc(-c4ccc(Cl)cc4)[nH]n3)CC2)n1
RP-LC retention time: 827 s

Cc1ccc(Nc2nc(C)cc(N3CCN(S(=O)(=O)c4ccc(C(F)(F)F)cc4)CC3)n2)cc1
RP-LC retention time: 851 s

CCC(CC)C(=O)Nc1c(-c2ccccc2)nc2cc(C)ccn12
RP-LC retention time: 654 s

O=C(c1ccc(F)cc1)N1CCC(n2c(-c3ccoc3)nc3cccnc32)C1 (stereo not given)
RP-LC retention time: 712 s

CCn1cc(S(=O)(=O)Nc2ccc3nc(S(=O)(=O)CC)sc3c2)cn1
RP-LC retention time: 693 s

Cc1ncc2n1CCN(S(=O)(=O)c1ccccc1)C2
RP-LC retention time: 584 s

CCn1c(=O)c(C(=O)NCCN(C)C2CCCCC2)nc2cccnc21
RP-LC retention time: 722 s

COc1ccccc1NC(=O)CN1CCc2[nH]c3c(OC)ccc(Cl)c3c(=O)c2C1
RP-LC retention time: 638 s

Cc1cccc(N2CCN(Cc3nc(-c4ccc(N5CCOCC5)nc4)no3)CC2)c1C
RP-LC retention time: 945 s

CN1CCCC1c1nc(C2CN(C(=O)c3ccn[nH]3)C2)no1 (stereo not given)
RP-LC retention time: 506 s

Clc1ccc(Cl)c(-c2ccc(CNCc3ccccn3)o2)c1
RP-LC retention time: 733 s

COCCn1nc(N2CCCC(NS(=O)(=O)c3c(C)nn(C)c3C)C2)ccc1=O (stereo not given)
RP-LC retention time: 622 s

COc1ccc(C2=NN(C(=O)c3ccccc3)C(c3cccc([N+](=O)[O-])c3)C2)cc1 (stereo not given)
RP-LC retention time: 1000 s

Cc1ccc(-c2csc(NC(=O)Cc3csc(-c4ccccc4)n3)n2)cc1C
RP-LC retention time: 1230 s

CC(C)N(C(=O)Cn1c(CN(C)C(=O)c2ccco2)nc2ccccc21)c1ccccc1
RP-LC retention time: 725 s

Cc1ccc(Nc2c(-c3c(F)cccc3Cl)nc3ccc(Br)cn23)cc1
RP-LC retention time: 985 s

O=C(NCc1ccc(F)cc1Cl)C1=C2CCCN2c2ccccc2S1(=O)=O
RP-LC retention time: 913 s

Cc1cc(=O)n(CC(=O)NCc2ccc3c(c2)OCO3)c(N2CCOCC2)n1
RP-LC retention time: 622 s

Cn1c(SCC(=O)N2CCCCC2)nnc1-c1ccc2c(c1)OCCCO2
RP-LC retention time: 664 s

COc1cc(CNC(=O)COc2ccc(NC(=O)C3CC3)cn2)cc(OC)c1
RP-LC retention time: 713 s

CCCNC(=O)C1CCCN(c2nc3ncn(CC(=O)Nc4cc(F)ccc4C)c(=O)c3s2)C1 (stereo not given)
RP-LC retention time: 705 s

COc1cc(OC)cc(C(=O)N2CCC3(C2)C(=O)N(C)c2ccc(OC)cc23)c1 (stereo not given)
RP-LC retention time: 798 s

Cc1ccc(-n2ccc(=O)c(-c3nc(-c4cccc(Cl)c4)no3)n2)cc1
RP-LC retention time: 1030 s

O=C(NC1CCCC1)C1CCCN(c2nnc3ccc(Cl)cn23)C1 (stereo not given)
RP-LC retention time: 648 s

CCCCN(C)C(=O)c1sc(Nc2ccccn2)nc1C
RP-LC retention time: 777 s

CCc1cccc(NC(=O)N2C[C@@H](F)C[C@H]2C(=O)N2CCc3ccccc3C2)c1
RP-LC retention time: 887 s

Cc1ccc(CNC(=O)c2cn(-c3ccc(NC(=O)C4CC4)cn3)cn2)cc1
RP-LC retention time: 773 s

CNC(=O)c1cncc(OC(C)C)c1
RP-LC retention time: 610 s
